Data as given in patent US20260200939A1, “MOLECULAR GLUE DEGRADER COMPOUNDS AND USES THEREOF” (Novartis AG, priority 2022, published 2026).

Columns and labels:
BRD4 short = molecular target: T1, BRD4 short (Homo sapiens, UniProt O60885); assay: BRD4 (short) degradation assay, Western blotting; assay type: cell-based
T1 construct: endogenous in cells; host or cells: HEK293T
Procedure: (§1) C33A cells were purchased from American Type Culture Collection (ATCC) and were cultured in Dulbecco's Modified Eagle Medium (DMEM) containing 10% (v/v) fetal bovine serum (FBS) and maintained at 37° C. with 5% CO2. 22RV1 cells were purchased from the ATCC and were cultured in RPMI-1640 Medium containing 10% (v/v) FBS and maintained at 37° C. with 5% CO2. HEK293T cells were obtained from the UC Berkeley Cell Culture Facility and were cultured in DMEM containing 10% (v/v) FBS and maintained at 37° C. with 5% CO2. K562 cells were obtained from the UC Berkeley Cell Culture Facility and were cultured in Iscove's Modified Dulbecco's Medium (IMDM) containing 10% (v/v) FBS and maintained at 37° C. with 5% CO2. MV-4-11 cells were obtained from the ATCC and were cultured in IMDM containing 10% (v/v) FBS and maintained at 37° C. with 5% CO2. A549 cells were obtained from the ATCC and were cultured in F-12K Medium containing 10% (v/v) FBS and maintained at 37° C. with 5% CO2. Mino cells were obtained from the ATCC and were cultured in RPMI-1640 Medium containing 10% (v/v) FBS and maintained at 37° C. with 5% CO2. LNCaP cells were obtained from the ATCC and were cultured in RPMI-1640 Medium containing 10% (v/v) FBS and maintained at 37° C. with 5% CO2. Unless otherwise specified, all cell culture materials were purchased from Gibco. It is not known whether HEK293T cells are from male or female origin.
(§2) Cells were washed twice with cold PBS, scraped, and pelleted by centrifugation (700 g, 5 min, 4° C.). Pellets were resuspended in PBS, sonicated, clarified by centrifugation (12,000 g, 10 min, 4° C.), and lysate was transferred to new low-adhesion microcentrifuge tubes. Proteome concentrations were determined using BCA assay and lysate was diluted to appropriate working concentrations.
(§3) Proteins were resolved by SDS/PAGE and transferred to nitrocellulose membranes using the Trans-Blot Turbo transfer system (Bio-Rad). Membranes were blocked with 5% BSA in Tris-buffered saline containing Tween 20 (TBS-T) solution for 30 min at RT, washed in TBS-T, and probed with primary antibody diluted in recommended diluent per manufacturer overnight at 4° C. After 3 washes with TBS-T, the membranes were incubated in the dark with IR680- or IR800-conjugated secondary antibodies at 1:10,000 dilution in 5% BSA in TBS-T at RT for 1 h. After 3 additional washes with TBST, blots were visualized using an Odyssey Li-Cor fluorescent scanner. The membranes were stripped using ReBlot Plus Strong Antibody Stripping Solution (EMD Millipore) when additional primary antibody incubations were performed. Antibodies used in this study were CDK4 (Abcam ab108357), Vinculin (Abcam ab129002), GAPDH (Cell Signaling Technology 14C10), RNF126 (Santa Cruz Biotechnology sc-376005), BRD4 (Abcam ab128874), Beta Actin (Cell Signaling Technology 13E5), PDE5 (Abcam ab259945), AR-V7 (Abcam ab273500), c-Abl (Santa Cruz Biotechnology sc-23), SMARCA2 (Abcam ab240648), LRRK2 (Abcam ab133474), BTK (Cell Signaling Technology D3H5), Androgen Receptor (Abcam ab133273).

BRD4 long = molecular target: T2, BRD4 long (Homo sapiens, UniProt O60885); assay: BRD4 (long) degradation assay, Western blotting; assay type: cell-based
T2 construct: endogenous in cells; host or cells: HEK293T
Procedure: as §1, §2, §3

[1] = second value of cell (long/short)
[2] = first value of cell (long/short)
[3] = first value of cell, range with lower bound in nM and upper bound in μM
[4] = second value of cell, range with lower bound in nM and upper bound in μM

Row | DC50 (BRD4 short; [1]) | DC50 (BRD4 long; [2]) | DC50 (BRD4 long; [3]) | DC50 (BRD4 short; [4]) | Compound
1 | 10 to 100 nM | 10 to 100 nM | – | – | Cc1sc2c(c1C)C(c1ccc(Cl)cc1)=N[C@@H](CC(=O)N[C@H]1C[C@H](NC(=O)/C=C/C(=O)c3ccc4c(c3)CCO4)C1)c1nnc(C)n1-2 [Compound 211, (E)-N-((1S,3r)-3-(2-((S)-4-(4-chlorophenyl)-2,3,9-trimethyl-6H-thieno[3,2-f][1,2,4]triazolo[4,3-a][1,4]diazepin-6-yl)acetamido)cyclobutyl)-4-(2,3-dihydrobenzofuran-5-yl)-4-oxobut-2-enamide]
2 | 10 to 100 nM | – | 100 to 1000 nM | – | COc1ccc(C(=O)/C=C/C(=O)N2C[C@H]3CN(C(=O)C[C@@H]4N=C(c5ccc(Cl)cc5)c5c(sc(C)c5C)-n5c(C)nnc54)[C@H]3C2)cc1 [Compound 212, (E)-1-((1S,5R)-6-(2-((S)-4-(4-chlorophenyl)-2,3,9-trimethyl-6H-thieno[3,2-f][1,2,4]triazolo[4,3-a][1,4]diazepin-6-yl)acetyl)-3,6-diazabicyclo[3.2.0]heptan-3-yl)-4-(4-methoxyphenyl)but-2-ene-1,4-dione]
3 | – | – | 100 to 1000 nM | 100 to 1000 nM | COc1ccc(C(=O)/C=C/C(=O)N2C[C@@H]3CN(C(=O)C[C@@H]4N=C(c5ccc(Cl)cc5)c5c(sc(C)c5C)-n5c(C)nnc54)[C@@H]3C2)cc1 [Compound 213, (E)-1-((1R,5S)-6-(2-((S)-4-(4-chlorophenyl)-2,3,9-trimethyl-6H-thieno[3,2-f][1,2,4]triazolo[4,3-a][1,4]diazepin-6-yl)acetyl)-3,6-diazabicyclo[3.2.0]heptan-3-yl)-4-(4-methoxyphenyl)but-2-ene-1,4-dione]
4 | 10 to 100 nM | 10 to 100 nM | – | – | COc1ccc(C(=O)/C=C/C(=O)N2CCN(C(=O)C[C@@H]3N=C(c4ccc(Cl)cc4)c4c(sc(C)c4C)-n4c(C)nnc43)C[C@@H]2C)cc1 [Compound 214, (E)-1-((S)-4-(2-((S)-4-(4-chlorophenyl)-2,3,9-trimethyl-6H-thieno[3,2-f][1,2,4]triazolo[4,3-a][1,4]diazepin-6-yl)acetyl)-2-methylpiperazin-1-yl)-4-(4-methoxyphenyl)but-2-ene-1,4-dione]
5 | 10 to 100 nM | < 10 nM | – | – | COc1ccc(C(=O)/C=C/C(=O)N2[C@H](C)CN(C(=O)C[C@@H]3N=C(c4ccc(Cl)cc4)c4c(sc(C)c4C)-n4c(C)nnc43)C[C@@H]2C)cc1 [Compound 215, (E)-1-((2S,6R)-4-(2-((S)-4-(4-chlorophenyl)-2,3,9-trimethyl-6H-thieno[3,2-f][1,2,4]triazolo[4,3-a][1,4]diazepin-6-yl)acetyl)-2,6-dimethylpiperazin-1-yl)-4-(4-methoxyphenyl)but-2-ene-1,4-dione]
6 | < 10 nM | < 10 nM | – | – | COc1ccc(C(=O)/C=C/C(=O)N2CCN(C(=O)C[C@@H]3N=C(c4ccc(Cl)cc4)c4c(sc(C)c4C)-n4c(C)nnc43)[C@@H](C)C2)cc1 [Compound 216, (E)-1-((S)-4-(2-((S)-4-(4-chlorophenyl)-2,3,9-trimethyl-6H-thieno[3,2-f][1,2,4]triazolo[4,3-a][1,4]diazepin-6-yl)acetyl)-3-methylpiperazin-1-yl)-4-(4-methoxyphenyl)but-2-ene-1,4-dione]
7 | < 10 nM | < 10 nM | – | – | COc1ccc(C(=O)/C=C/C(=O)N2CCN(C(=O)C[C@@H]3N=C(c4ccc(Cl)cc4)c4c(sc(C)c4C)-n4c(C)nnc43)C[C@H]2C)cc1 [Compound 217, (E)-1-((R)-4-(2-((S)-4-(4-chlorophenyl)-2,3,9-trimethyl-6H-thieno[3,2-f][1,2,4]triazolo[4,3-a][1,4]diazepin-6-yl)acetyl)-2-methylpiperazin-1-yl)-4-(4-methoxyphenyl)but-2-ene-1,4-dione]
8 | < 10 nM | < 10 nM | – | – | COc1ccc(C(=O)/C=C/C(=O)N2CCN(C(=O)C[C@@H]3N=C(c4ccc(Cl)cc4)c4c(sc(C)c4C)-n4c(C)nnc43)[C@H](C)C2)cc1 [Compound 218, (E)-1-((R)-4-(2-((S)-4-(4-chlorophenyl)-2,3,9-trimethyl-6H-thieno[3,2-f][1,2,4]triazolo[4,3-a][1,4]diazepin-6-yl)acetyl)-3-methylpiperazin-1-yl)-4-(4-methoxyphenyl)but-2-ene-1,4-dione]
9 | – | – | 100 to 1000 nM | 100 to 1000 nM | COc1ccc(C(=O)/C=C/C(=O)N2CCCN(C(=O)C[C@@H]3N=C(c4ccc(Cl)cc4)c4c(sc(C)c4C)-n4c(C)nnc43)CC2)cc1 [Compound 219, (S,E)-1-(4-(2-(4-(4-chlorophenyl)-2,3,9-trimethyl-6H-thieno[3,2-f][1,2,4]triazolo[4,3-a][1,4]diazepin-6-yl)acetyl)-1,4-diazepan-1-yl)-4-(4-methoxyphenyl)but-2-ene-1,4-dione]
10 | 10 to 100 nM | 10 to 100 nM | – | – | COc1ccc(C(=O)/C=C/C(=O)N2CCN(C(=O)C[C@@H]3N=C(c4ccc(Cl)cc4)c4c(sc(C)c4C)-n4c(C)nnc43)CC23CC3)cc1 [Compound 221, (S,E)-1-(7-(2-(4-(4-chlorophenyl)-2,3,9-trimethyl-6H-thieno[3,2-f][1,2,4]triazolo[4,3-a][1,4]diazepin-6-yl)acetyl)-4,7-diazaspiro[2.5]octan-4-yl)-4-(4-methoxyphenyl)but-2-ene-1,4-dione]
11 | 1 to 10 nM | 1 to 10 nM | – | – | COc1ccc(C(=O)/C=C/C(=O)NC2CC(NC(=O)C[C@@H]3N=C(c4ccc(Cl)cc4)c4c(sc(C)c4C)-n4c(C)nnc43)C2)cc1 (some centres unmarked) [Compound 222]
12 | 12 nM | 8 nM | – | – | COc1ccc(C(=O)/C=C/C(=O)N[C@H]2C[C@H](NC(=O)C[C@@H]3N=C(c4ccc(Cl)cc4)c4c(sc(C)c4C)-n4c(C)nnc43)C2)cc1 [Compound 223, (E)-N-((1S,3r)-3-(2-((S)-4-(4-chlorophenyl)-2,3,9-trimethyl-6H-thieno[3,2-f][1,2,4]triazolo[4,3-a][1,4]diazepin-6-yl)acetamido)cyclobutyl)-4-(4-methoxyphenyl)-4-oxobut-2-enamide]
13 | 1 to 10 nM | 1 to 10 nM | – | – | COc1ccc(C(=O)/C=C/C(=O)N2CCC3(CCN(C(=O)C[C@@H]4N=C(c5ccc(Cl)cc5)c5c(sc(C)c5C)-n5c(C)nnc54)C3)C2)cc1 (stereo partly drawn) [Compound 224, (E)-1-(7-(2-((S)-4-(4-chlorophenyl)-2,3,9-trimethyl-6H-thieno[3,2-f][1,2,4]triazolo[4,3-a][1,4]diazepin-6-yl)acetyl)-2,7-diazaspiro[4.4]nonan-2-yl)-4-(4-methoxyphenyl)but-2-ene-1,4-dione]
14 | – | < 10 nM | – | 100 to 1000 nM | COc1ccc(C(=O)/C=C/C(=O)N2CC3CCN(C(=O)C[C@@H]4N=C(c5ccc(Cl)cc5)c5c(sc(C)c5C)-n5c(C)nnc54)CC3C2)cc1 (stereo partly drawn) [Compound 225, (E)-1-(5-(2-((S)-4-(4-chlorophenyl)-2,3,9-trimethyl-6H-thieno[3,2-f][1,2,4]triazolo[4,3-a][1,4]diazepin-6-yl)acetyl)octahydro-2H-pyrrolo[3,4-c]pyridin-2-yl)-4-(4-methoxyphenyl)but-2-ene-1,4-dione]
15 | 10 to 100 nM | 10 to 100 nM | – | – | COc1ccc(C(=O)/C=C/C(=O)N2CC3CCC2CN3C(=O)C[C@@H]2N=C(c3ccc(Cl)cc3)c3c(sc(C)c3C)-n3c(C)nnc32)cc1 (stereo partly drawn) [Compound 226, (E)-1-(5-(2-((S)-4-(4-chlorophenyl)-2,3,9-trimethyl-6H-thieno[3,2-f][1,2,4]triazolo[4,3-a][1,4]diazepin-6-yl)acetyl)-2,5-diazabicyclo[2.2.2]octan-2-yl)-4-(4-methoxyphenyl)but-2-ene-1,4-dione]
16 | 10 to 100 nM | 10 to 100 nM | – | – | COc1ccc(C(=O)/C=C/C(=O)N2CC3(CCN(C(=O)C[C@@H]4N=C(c5ccc(Cl)cc5)c5c(sc(C)c5C)-n5c(C)nnc54)CC3)C2)cc1 [Compound 227, (S,E)-1-(7-(2-(4-(4-chlorophenyl)-2,3,9-trimethyl-6H-thieno[3,2-f][1,2,4]triazolo[4,3-a][1,4]diazepin-6-yl)acetyl)-2,7-diazaspiro[3.5]nonan-2-yl)-4-(4-methoxyphenyl)but-2-ene-1,4-dione]
